The values below come from paper PMC11420944, “Targeted Degradation of Protein Kinase A via a Stapled Peptide PROTAC” (ACS Chemical Biology, 2024).

One series concerns the target T1, PKAc (Homo sapiens, UniProt P17612).
T1 construct: degrade native PKAc in cells, MDA-MB-231 cells were used; endogenous in cells; host or cells: MDA-MB-231 (ATCC HTB-26)
Nature of the series: PKAc degradation in cells, Western blot densitometry. In kind it is cell-based. The settings on record: MDA-MB-231 cells, n = 3. An excerpt:
To determine whether StIP-TAC could successfully degrade native PKAc in cells, MDA-MB-231 cells were used. […] We hypothesized this lack of a statistically significant effect may be a result of the compound’s relatively large molecular weight (∼3 kDa) and potentially limited cellular permeability, a common limitation of PROTAC molecules.[37]−[40] […] Based on this study, we aimed to improve delivery of our compound using SAINT Protein. […] To confirm that StIP-TAC-mediated degradation of PKAc resulted from recruitment of the proteasome, we incubated cells with 10 μM StIP-TAC alongside 10 μM proteasomal inhibitor MG-132 and subsequently screened for PKAc protein levels.
Cell-based PROTAC activity assays. MDA-MB-231 cells were grown on 6-well tissue culture plates (BD Biosciences). Cells were serum-starved for 24 hours in serum-free RPMI with penicillin/streptomycin, glucose, and L-glutamine. StIP-TAC treatment was prepared with SAINT-Protein reagent according to manufacturer protocol (Synvolux) and added to cells at a final concentration of 10 µM for 5 hours. For phosphorylation studies, cells were additionally stimulated with 50 µM forskolin for 30 minutes before harvesting. For H89-treated cells, 50 μM H89 was added 30 minutes before stimulation with forskolin. For degradation studies, cells were co-treated with 10 μM MG-132 (Selleck Chemicals) alongside StIP-TAC and DMSO treatments for the duration of the 5-hour experiment. For studies examining the NAE-mediated activation of CRL, cells were co-treated with 6 μM MLN4924 (Cayman Chemical) alongside StIP-TAC for the duration of the 5-hour experiment. For studies examining potential effects of StIP-3 on PKAc protein levels, cells were treated with 10 μM StIP-3 with or without SAINT-Protein reagent for 5 hours. Cells were harvested in Laemmli sample buffer, boiled for 10 minutes and protein levels were analyzed via western blotting. For control experiments, cells were incubated for 5 hours with an equivalent volume of DMSO or SAINT-Protein to the above studies, with or without forskolin stimulation.
To assess PKA degradation, anti-PKAc (1:1000, BD Biosciences) and anti-GAPDH (1:1000, Proteintech) primary antibodies were used. To assess PKA substrate phosphorylation, anti-phospho serine/threonine PKA substrate (1:1000, Cell Signaling Technology) and anti-tubulin (1:1000, Cell Signaling Technology) primary antibodies were used. To assess phosphorylation of VASP, anti-phospho VASP (1:1000, Cell […]
Signaling Technology) and anti-GAPDH (0.5 μg/mL, DSHB) primary antibodies were used. Incubation with primary antibodies was followed by incubation with anti-mouse […]
(§1) Biosciences). Western blot fluorescence detection was performed using a LI-COR Odyssey Fc imaging system. Data analysis was performed using GraphPad Prism […]
Table S1. Peptide and PROTAC sequences, expected and observed masses determined via HPLC-MS. Asterisks (*) represent residues of (S)-2-(4-pentenyl)- […]
(1 picture or pasted object on this page, not shown here)
Figure S3: Western blots for PKA degradation. Experiments were performed in triplicate (n=3) in low passage number MDA-MB-231 cells (ATCC HTB-26). Following t = 24 hour starvation in serum-free RPMI media, cells were treated for t = 5 hours with DMSO, SAINT-Protein Lipid reagent alone, 10 µM StIP-TAC, or 10 µM StIP-TAC incubated with SAINT-Protein Lipid reagent per manufacturer instructions. […]
(In general: Immunoblotting shows a protein as a band on a membrane.)

Series [1] concerns phospho serine/threonine PKA substrate. Nature of the series: PKA substrate phosphorylation in forskolin-stimulated cells, Western blot. The settings on record: MDA-MB-231 cells, 10 µM, 5 h, 50 µM forskolin 30 min, n = 3. In kind it is cell-based. How it is done: (§2) Next, we sought to assess whether StIP-TAC could also downregulate PKAc signaling in cells. For this experiment, cells were treated with forskolin to stimulate PKAc activity. Cells were either treated with DMSO, the small molecule PKAc inhibitor H89, StIP-TAC alone, or StIP-TAC with SAINT protein (Figure 4; Figure S7). […] (Figure 4C,D). A known PKA substrate, vasodilator-stimulated phosphoprotein (VASP),[42] was also probed for PKA-mediated phosphorylation (Figure S8).
Cell-based PROTAC activity assays. MDA-MB-231 cells were grown on 6-well tissue culture plates (BD Biosciences). Cells were serum-starved for 24 hours in serum-free RPMI with penicillin/streptomycin, glucose, and L-glutamine. StIP-TAC treatment was prepared with SAINT-Protein reagent according to manufacturer protocol (Synvolux) and added to cells at a final concentration of 10 µM for 5 hours. For phosphorylation studies, cells were additionally stimulated with 50 µM forskolin for 30 minutes before harvesting. For H89-treated cells, 50 μM H89 was added 30 minutes before stimulation […]
with forskolin. […]
Cells were harvested in Laemmli sample buffer, boiled for 10 minutes and protein levels were analyzed via western blotting. For control experiments, cells were incubated for 5 hours with an equivalent volume of DMSO or SAINT-Protein to the above studies, with or without forskolin stimulation.
To assess PKA degradation, anti-PKAc (1:1000, BD Biosciences) and anti-GAPDH (1:1000, Proteintech) primary antibodies were used. To assess PKA substrate phosphorylation, anti-phospho serine/threonine PKA substrate (1:1000, Cell Signaling […]
Incubation with primary antibodies was followed by incubation with anti-mouse […]
as §1
Figure S7: Western blots for PKA substrate phosphorylation. Experiments were performed in triplicate (n=3) in low passage number MDA-MB-231 cells (ATCC HTB-26). Following t = 24 hour starvation in serum-free RPMI media, cells were treated for t = 5 hours with DMSO, SAINT-Protein Lipid reagent alone, 10 µM StIP-TAC, or 10 µM StIP-TAC incubated with SAINT-Protein Lipid reagent per manufacturer instructions. For forskolin-stimulated treatments, cells were incubated for 30 minutes with 50 µM forskolin […]
prior to harvesting in Laemmli sample buffer. For H89-inhibited treatments, cells were incubated for 30 minutes prior to forskolin stimulation with 50 µM H89. Lysates were run via SDS-PAGE and Western blotting performed anti-phospho serine/threonine PKA substrate (1:1000, Cell Signaling Technology) and anti-tubulin (1:1000, Cell Signaling Technology) primary antibodies.

The next series relates to phospho VASP. The series can be described thus: VASP phosphorylation in forskolin-stimulated cells, Western blot. Particulars: MDA-MB-231 cells, 10 µM, 5 h, 50 µM forskolin 30 min, n = 3. It is filed as cell-based. Here is the method:
as §2
Cell-based PROTAC activity assays. MDA-MB-231 cells were grown on 6-well tissue culture plates (BD Biosciences). Cells were serum-starved for 24 hours in serum-free RPMI with penicillin/streptomycin, glucose, and L-glutamine. StIP-TAC treatment was prepared with SAINT-Protein reagent according to manufacturer protocol (Synvolux) and added to cells at a final concentration of 10 µM for 5 hours. For phosphorylation studies, cells were additionally stimulated with 50 µM forskolin for 30 minutes before harvesting. For H89-treated cells, 50 μM H89 was added 30 minutes before stimulation with forskolin. For degradation studies, cells were co-treated with 10 μM MG-132 (Selleck Chemicals) alongside StIP-TAC and DMSO treatments for the duration of the 5-hour experiment. […] Cells were harvested in Laemmli sample buffer, boiled for 10 minutes and protein levels were analyzed via western blotting. […]
Biosciences). Western blot fluorescence detection was performed using a LI-COR Odyssey Fc imaging system. […]
Table S1. Peptide and PROTAC sequences, expected and observed masses determined via HPLC-MS. […]
Figure S8: StIP-TAC inhibits phosphorylation of the PKA substrate VASP. […] (B) Densitometric quantification of Western blots […]
reduction in phosphorylated VASP in cells treated with H89 and StIP-TAC with SAINT Protein reagent. Quantification was performed via Li-COR Image Studio. **p=0.010; ***p<0.001; ns, not significant as assessed by one-way ANOVA and Bonferroni’s multiple comparisons test. […]

As to “Cereblon Ligand 1-PEG8-*TTY*DFIASGRTGRRNAI (sidechain bridge or staple) [StIP-TAC]”, the “PKAc protein levels on co-treatment with NAE inhibitor MLN4924” value at PKAc (10 µM with SAINT Protein, plus 6 µM MLN4924, 5 h) was “rescued PKAc protein to baseline levels”. Further, on PKAc (10 µM with SAINT Protein, plus 10 µM MG-132, 5 h), the “PKAc protein levels on co-treatment with proteasomal inhibitor MG-132” value is on record as “rescued PKAc protein to baseline levels”. Moreover, at PKAc (10 µM, 5 h, with SAINT Protein lipid reagent, normalized to GAPDH), the “reduction of PKAc protein levels vs vehicle control” value was “approximately 50%”. Also, the “PKAc degradation, forskolin stimulated vs unstimulated” value on PKAc (10 µM, 5 h, with or without 30 min 50 µM forskolin) was “no significant difference”. At PKAc (10 µM, 5 h, without SAINT Protein lipid reagent, normalized to GAPDH), the “PKAc protein levels vs vehicle control” value is “no significant reduction”. In addition, the PKAc substrate phosphorylation result is listed as “significant reduction in substrate phosphorylation to near basal levels” in series [1] (with SAINT Protein) and “did not yield a significant reduction” in series [1] (without SAINT Protein). Also, the “phosphorylation of the approximately 55, 60, 80, and 100 kDa substrate bands” value in series [1] (with SAINT Protein) is “statistically significant reduction”. Also, the figures for the VASP phosphorylation entry with phospho VASP (with SAINT-Protein) and in the series on phospho VASP (without SAINT Protein) were “significant inhibition” and “did not result in a significant reduction”, respectively. Besides, the cell permeability result with cells was “no longer permeable”.
